# In article PMC7961786, “Magic Peptide: Unique Properties of the LRR11 Peptide in the Activation of Leukotriene Synthesis in Human Neutrophils” (International Journal of Molecular Sciences, 2021):
# B1: HMGB1: High-Mobility Group Box 1 (HMGB1) protein, a DAMP (protein, UniProt P09429 1-215, looked up)
# High mobility group protein B1: MGKGDPKKPRGKMSSYAFFVQTCREEHKKKHPDASVNFSEFSKKCSERWKTMSAKEKGKFEDMAKADKARYEREMKTYIPPKGETKKKFKDPNAPKRPPSAFFLFCSEYRPKIKGEHPGLSIGDVAKKLGEMWNNTAADDKQPYEKKAAKLKEKYEKDIAAYRAKGKPDAAKKGVVKAEKSKKKKEEEEDEEDEEDEEEEEDEEDEDEEEDDDDE
# What was measured:
# RAGE = settings: ref [53]; cited from earlier work
# From the text: Most likely, CpG-ODN can serve as a linker between various receptor molecules of neutrophils. We hypothesize that some receptors on the cell surface have a multivalent ability to bind a broad spectrum of ligands, including ODNs, and that the stimulatory action of LRR11 on the CpG-ODNs may be related to cooperation with other receptors on the neutrophil surface.
# [1] = tested on: human neutrophils (PMNLs), 5-LOX product synthesis; assay: 5-LOX metabolite synthesis in human neutrophils stimulated with opsonized S. typhimurium (HPLC); format: cell-based
# Experimental: Figure 1 Effects of LRR11 and ODNs on the formation of LTB4 (A,B) and the sum of 5-LOX metabolites (ω-OH-LTB4, LTB4 and its isomers, and 5-HETE) (C) in human PMNLs. PMNLs (2 × 10^7) were incubated for 15 min at 37 °C without (black bars) or with 1 μM LRR11 (A, LRR11_first); then ODNs and LRR11 or LPS were added; various ways of adding ODN and LRR11 peptide are indicated. In control samples, Hanks’ solution was added instead of ODNs. After 20 min, 0.5 × 10^9 S. typhimurium bacterial cells were added for a further 15 min. The 5-LOX products were determined using HPLC. Values indicate mean ± SEM of five independent experiments performed in duplicate. * p < 0.05, ** p < 0.01, *** p < 0.005, compared with the control. # p < 0.05, ## p < 0.01 for pairs of data compared as indicated by two-way ANOVA followed by Tukey’s multiple comparison test.
# Figure 3 Synthesis of the 5-LOX metabolites in PMNLs exposed to opsonized S. typhimurium bacteria in the presence of the RAGE antagonist FPS-ZM1. PMNLs (2 × 10^7) were incubated for 15 min at 37 °C without additives or with 0.15 µM FPS-ZM1, for the next 20 min the mixture was incubated with 1 µM ODNs without (black bars) or with 1 µM LRR11 (gray bars) before adding 5 × 10^8 S. typhimurium for 15 min. In control samples, Hanks’ solution was added instead of ODNs. The 5-LOX products were determined using HPLC. Graphical data are presented for LTB4 (A) or the sum of LTB4 and its isomers, ω-OH-LTB4 and 5-HETE, designed as Σ5LOX products (B).
# Human neutrophils were isolated from freshly taken citrate-anticoagulated peripheral blood from healthy individuals using standard methods. Leukocyte-rich plasma was prepared by sedimentation of erythrocytes with 3% dextran T-500 at room temperature. For purification of granulocytes, centrifugation through Ficoll-Paque (density 1.077 g/mL) was used, followed by hypotonic lysis of the remaining erythrocytes. […] All methods were performed in accordance with the relevant instructions and regulations of the Ministry of Health of the Russian Federation and local legislation.
# Bacteria (S. typhimurium IE 147 strain) obtained from the Collection of Gamaleya National Research Center of Epidemiology and Microbiology (Moscow, Russia) were grown in Luria–Bertani broth to a concentration of 1 × 10^9 colony-forming units (CFU)/mL. The bacteria were collected by centrifugation at 2000 g and opsonized immediately before the experiment for 30 min in 20% (v/v) fresh serum from the same donor whose blood was used to isolate neutrophils. Repeated centrifugation in Dulbecco’s solution was used to wash the bacteria.
# The cell suspension (2 × 10^7 PMNLs in HBSS/HEPES, reaction volume of 6 mL) was cultured for 15 min in an incubator at 37 °C, 5% CO2. Then 1.0 µM ODN with or without 1.0 µM LRR11, or 2 µg/mL LPS, was added as indicated. After 20 min, the cells were stimulated with S. typhimurium (the ratio of bacteria to PMNLs was approximately 20:1) for the next 15 min [3]. The synthesis of 5-LOX metabolites was stopped by adding an equal volume of methanol at −20 °C with prostaglandin B2 as an internal standard. Samples were stored at −20 °C. The denatured cell suspension was centrifuged, and supernatants designated as water/methanol extracts.
# To purify the water/methanol extracts, solid-phase extraction was used on Sep-Pak C18 cartridges (500 mg; Macherey-Nagel, Dueren, Germany), which were conditioned first with methanol, and then with water. Major 5-LOX metabolites were identified by comparing retention times with those of known compounds, as previously described.
# Table S1. Effect of Chloroquine on 5-LOX product formation in PMNLs after ODN priming followed by the addition
# of opsonized S. typhimurium bacteria.
# 5′-biotinylated B-CpG = assay: TSM acoustic biosensor, peptide binding to immobilized B-CpG
# From the text: To characterize the interaction of the studied synthetic ODNs with the LRR11 peptide, we applied the thickness shear mode (TSM) acoustic biosensor method, which is based on the investigation of ultrasonic waves in piezoelectric materials such as AT-cut quartz. This approach involved immobilizing a 5′-biotinylated ODN on the surface of TSM transducer covered by NeutrAvidin and then adding the LRR11 peptide. An unrelated peptide (URP) with a random primary structure ([…]) was used as a negative control. The measurement procedure was divided into several steps, in which each immobilization stage was followed by washing with an appropriate buffer solution; when peptide solutions at different concentrations (from 1 to 100 nM) were added to the surface-modified TSM transducer, a wash with Hanks buffer was used before increasing the peptide concentration.
# Based on Langmuir isotherm Equation (1), (1) Δfcc=Δfsmaxc/KD+c where Δfs(c) is the frequency change at a certain peptide concentration under equilibrium conditions, (Δfs)max is the maximum frequency change, c is the peptide concentration, and KD is the equilibrium constant of dissociation, we estimated the (Δfs)max and KD values for binding of the LRR11 peptide to C-CpG and B-CpG (Table 3).
# Eight MHz AT-cut piezoelectric quartz crystal transducer was obtained from CH Instruments, Austin, TX, USA. The transducer was covered on both sides with thin layers of gold that served as electrodes (working area 0.2 cm^2). Prior ODNs immobilization, the crystal was carefully cleaned with basic Piranha solution (29% NH3, 30% H2O and H2O2 with volumetric 1:5:1 ratio, respectively) for 25 min. After the thorough cleaning, the crystal was positioned between two silicon O-rings in a flow-through cell. The analyte was injected into the cell using a Genie Plus syringe pump (Kent Scientific, Torrington, CT, USA) at a flow rate of 50 μL/min. Each solution was applied until the resonance frequency stabilized. The surface of the transducer was first washed with deionized water, and then 125 μg/mL NeutrAvidin (WWR International GmbH, Vienna, Austria) solution in water was applied. Approximately 15 min were required to stabilize the signal at a constant NeutrAvidin flow rate. This was followed by washing with water to rinse out all non-chemisorbed NeutrAvidin molecules. Immobilization of ODN on the gold surface of the crystals is accomplished using avidin–biotin interactions. A 1 μM 5′-biotinylated ODN solution was injected over the neutravidin-modified surface and subsequently the crystal was washed again with water. The system was then equilibrated using Hanks buffer solution. This buffer was suitable for studying LRR11–ODN binding. Then LRR11 was used at concentrations of 1, 5, 10, 50 and 100 nM […] in Hanks buffer. After each addition of LRR11, the sensor surface was washed with Hanks buffer and LRR11 with the higher concentration was added. All binding experiments were carried out at room temperature. Buffer and sample solutions were introduced in a flow-through format. A network analyzer 8712ES (Agilent Technologies, Santa Clara, CA, USA) was used to measure the impedance properties of the sensor and determine fS and Rm.
# [2] = tested on: human monocytes, leukotriene production; settings: RAGE-dependent pathway; ref [55]; cited from earlier work
# From the text: (§1) RAGE is shown to bind molecules, known as damage-associated molecular patterns (DAMPs), released by cells that die or are under conditions of inflammation.
# [3] = tested on: vascular smooth muscle cells; settings: ref [56]; cited from earlier work
# From the text: as §1
Molecule,degradation of RAGE receptor after RAGE binding (RAGE),"effect on 5-LOX activity / leukotriene synthesis ([1]; ODN alone, 1 µM, 20 min, then opsonized S. typhimurium 15 min, Figure 1, five independent experiments in duplicate)","Σ 5-LOX metabolites ([1]; Table S1, 2×10^7 PMNLs, 15 min at 37 °C without or with 5 µM Chloroquine, then ODN, after 20 min 0.5×10^9 opsonized S. typhimurium for 15 min, mean ± SEM, three independent experiments) [ng/107 PMNLs]","KA (5′-biotinylated B-CpG; LRR11-B-CpG complex, KA = 1/KD) [nM⁻¹]","−(Δfs)max (5′-biotinylated B-CpG; LRR11 to immobilized B-CpG, Langmuir fit, Hanks buffer, room temperature, LRR11 1-100 nM, three independent experiments) [Hz]",leukotriene production in human monocytes [2],RAGE expression / LTB4 production in vascular smooth muscle cells [3]
5′-tcgtcgttttgtcgttttgtcgtt-3′ [B-CpG],promoted rapid lysosomal degradation of the receptor,increased leukotriene synthesis,43.9 ± 4.1,0.018 ± 0.006,26.6 ± 3.8,–,–
B1,–,–,–,–,–,induce leukotriene production in human monocytes through a RAGE-dependent pathway,enhanced RAGE expression along with an increase in LTB4 production
